Source: PMC4990249, “Mitochondrial Probe Methyltriphenylphosphonium (TPMP) Inhibits the Krebs Cycle Enzyme 2-Oxoglutarate Dehydrogenase” (PLoS ONE, 2016)
pIC50: −log10 of the molar value.

Assays:
[1] = molecular target: T1, 2-oxoglutarate dehydrogenase complex (OGDHC) (Rattus norvegicus, UniProt Q01205+Q5XI78+Q6P6R2); experiment: spectrophotometric OGDHC activity (A340) at […] compound in muscle homogenate; type: cell-based; parameters: gene Ogdh; native complex in rat skeletal muscle homogenate enriched in mitochondrial fraction; with E2 and E3 components of the complex; settings: read-out: % of control activity at 1 mM
T1 sequence (Q5XI78 41-1023): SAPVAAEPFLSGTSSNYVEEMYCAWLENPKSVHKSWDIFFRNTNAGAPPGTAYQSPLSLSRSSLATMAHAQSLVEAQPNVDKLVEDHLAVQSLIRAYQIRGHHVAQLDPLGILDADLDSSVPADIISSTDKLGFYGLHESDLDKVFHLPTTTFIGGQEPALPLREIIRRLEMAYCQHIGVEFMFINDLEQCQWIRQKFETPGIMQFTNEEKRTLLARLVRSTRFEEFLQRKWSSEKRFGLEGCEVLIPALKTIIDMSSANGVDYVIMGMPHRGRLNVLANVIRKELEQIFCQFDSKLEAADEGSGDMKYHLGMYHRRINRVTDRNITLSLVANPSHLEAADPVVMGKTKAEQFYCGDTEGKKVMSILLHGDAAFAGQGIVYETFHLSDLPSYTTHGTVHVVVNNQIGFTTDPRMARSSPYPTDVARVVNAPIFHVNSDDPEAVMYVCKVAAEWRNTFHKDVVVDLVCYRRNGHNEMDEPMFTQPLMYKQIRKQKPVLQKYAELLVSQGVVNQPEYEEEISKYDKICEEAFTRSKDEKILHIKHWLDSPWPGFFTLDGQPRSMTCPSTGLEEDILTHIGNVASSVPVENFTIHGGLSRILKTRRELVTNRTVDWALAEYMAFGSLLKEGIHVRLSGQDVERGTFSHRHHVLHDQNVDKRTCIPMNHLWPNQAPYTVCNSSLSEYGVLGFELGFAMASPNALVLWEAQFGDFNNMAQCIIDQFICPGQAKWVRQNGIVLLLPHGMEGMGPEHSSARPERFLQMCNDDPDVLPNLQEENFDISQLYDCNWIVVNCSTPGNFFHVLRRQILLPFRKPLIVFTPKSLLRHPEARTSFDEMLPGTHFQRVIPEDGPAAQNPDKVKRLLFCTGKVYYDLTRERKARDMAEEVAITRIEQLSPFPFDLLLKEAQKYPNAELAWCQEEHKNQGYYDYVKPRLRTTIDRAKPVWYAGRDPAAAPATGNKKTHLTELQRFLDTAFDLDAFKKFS
T1 sequence (Q01205 69-454): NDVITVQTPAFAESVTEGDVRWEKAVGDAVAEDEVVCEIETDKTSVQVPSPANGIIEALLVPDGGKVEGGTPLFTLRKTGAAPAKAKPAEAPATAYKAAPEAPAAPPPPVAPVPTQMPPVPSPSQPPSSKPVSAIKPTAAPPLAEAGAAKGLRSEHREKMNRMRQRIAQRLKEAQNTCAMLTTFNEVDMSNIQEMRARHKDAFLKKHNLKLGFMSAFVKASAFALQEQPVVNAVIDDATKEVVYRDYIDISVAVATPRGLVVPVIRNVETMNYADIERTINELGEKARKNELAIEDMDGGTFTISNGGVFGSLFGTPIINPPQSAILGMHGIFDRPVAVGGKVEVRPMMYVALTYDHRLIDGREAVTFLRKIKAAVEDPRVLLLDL
T1 sequence (Q6P6R2 36-509): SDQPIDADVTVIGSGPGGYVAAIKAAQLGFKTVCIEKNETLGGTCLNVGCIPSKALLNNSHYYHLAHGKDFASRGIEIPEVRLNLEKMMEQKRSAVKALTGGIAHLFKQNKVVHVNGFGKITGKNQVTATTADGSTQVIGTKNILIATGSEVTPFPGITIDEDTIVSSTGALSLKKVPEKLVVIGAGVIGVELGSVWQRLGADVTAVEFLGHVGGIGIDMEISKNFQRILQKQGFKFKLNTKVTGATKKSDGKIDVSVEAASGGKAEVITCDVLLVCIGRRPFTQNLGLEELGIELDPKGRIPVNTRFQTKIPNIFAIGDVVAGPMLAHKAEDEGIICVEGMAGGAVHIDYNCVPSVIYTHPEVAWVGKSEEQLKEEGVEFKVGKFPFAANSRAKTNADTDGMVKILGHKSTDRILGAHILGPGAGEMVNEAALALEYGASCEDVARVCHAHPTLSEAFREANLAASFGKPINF

[2] = molecular target: T1, 2-oxoglutarate dehydrogenase complex (OGDHC); experiment: biochemical; parameters: gene Ogdh
[3] = molecular target: T2, 2-oxoglutarate dehydrogenase complex (OGDHC) (Sus scrofa, UniProt K9IVI1+P09623+Q9N0F1); experiment: Michaelis-Menten kinetics of purified complex, NADH absorbance at […] nm, […] TPMP; type: biochemical
T2 construct: gene OGDH; purified OGDHC enzyme (Sigma K1502), intact complex; with E2 component (dihydrolipoyl transsuccinylase) and E3 component (dihydrolipoyl dehydrogenase) of the complex
T2 sequence (K9IVI1 41-1023): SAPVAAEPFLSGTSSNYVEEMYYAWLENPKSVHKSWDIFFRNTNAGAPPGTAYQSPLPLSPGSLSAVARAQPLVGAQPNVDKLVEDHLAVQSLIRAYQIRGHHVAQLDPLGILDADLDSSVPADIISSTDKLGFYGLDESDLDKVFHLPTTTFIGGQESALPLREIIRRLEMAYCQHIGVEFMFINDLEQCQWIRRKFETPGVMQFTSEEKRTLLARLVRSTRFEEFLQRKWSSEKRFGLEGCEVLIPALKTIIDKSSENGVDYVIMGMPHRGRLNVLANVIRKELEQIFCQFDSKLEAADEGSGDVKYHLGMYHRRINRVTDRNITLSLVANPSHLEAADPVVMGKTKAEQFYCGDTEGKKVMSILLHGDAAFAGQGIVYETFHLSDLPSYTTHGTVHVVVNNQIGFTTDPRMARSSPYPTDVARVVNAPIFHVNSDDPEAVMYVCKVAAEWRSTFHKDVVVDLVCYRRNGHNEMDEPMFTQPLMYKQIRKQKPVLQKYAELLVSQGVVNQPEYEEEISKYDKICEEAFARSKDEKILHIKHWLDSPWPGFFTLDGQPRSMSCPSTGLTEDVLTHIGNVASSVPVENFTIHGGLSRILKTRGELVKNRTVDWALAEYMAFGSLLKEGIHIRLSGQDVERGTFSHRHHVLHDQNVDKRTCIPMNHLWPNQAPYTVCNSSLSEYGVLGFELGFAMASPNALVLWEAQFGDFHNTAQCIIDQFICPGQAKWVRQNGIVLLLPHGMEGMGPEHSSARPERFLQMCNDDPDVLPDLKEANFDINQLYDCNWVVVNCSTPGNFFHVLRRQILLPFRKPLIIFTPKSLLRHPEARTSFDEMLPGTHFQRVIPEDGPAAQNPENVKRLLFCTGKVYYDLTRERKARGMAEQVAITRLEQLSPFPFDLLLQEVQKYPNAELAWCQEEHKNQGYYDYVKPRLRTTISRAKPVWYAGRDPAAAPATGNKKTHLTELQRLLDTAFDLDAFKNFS
T2 sequence (Q9N0F1 69-455): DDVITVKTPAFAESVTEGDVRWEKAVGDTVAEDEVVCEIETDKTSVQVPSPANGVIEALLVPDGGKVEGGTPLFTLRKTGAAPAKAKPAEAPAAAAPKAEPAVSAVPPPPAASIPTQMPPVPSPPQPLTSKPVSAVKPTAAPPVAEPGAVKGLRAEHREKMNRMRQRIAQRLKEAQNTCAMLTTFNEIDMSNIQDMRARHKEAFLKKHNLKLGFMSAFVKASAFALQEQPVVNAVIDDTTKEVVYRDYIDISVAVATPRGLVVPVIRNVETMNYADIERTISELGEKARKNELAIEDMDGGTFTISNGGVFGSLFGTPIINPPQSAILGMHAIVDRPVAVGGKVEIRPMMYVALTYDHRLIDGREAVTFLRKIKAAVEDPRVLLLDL
T2 sequence (P09623 36-509): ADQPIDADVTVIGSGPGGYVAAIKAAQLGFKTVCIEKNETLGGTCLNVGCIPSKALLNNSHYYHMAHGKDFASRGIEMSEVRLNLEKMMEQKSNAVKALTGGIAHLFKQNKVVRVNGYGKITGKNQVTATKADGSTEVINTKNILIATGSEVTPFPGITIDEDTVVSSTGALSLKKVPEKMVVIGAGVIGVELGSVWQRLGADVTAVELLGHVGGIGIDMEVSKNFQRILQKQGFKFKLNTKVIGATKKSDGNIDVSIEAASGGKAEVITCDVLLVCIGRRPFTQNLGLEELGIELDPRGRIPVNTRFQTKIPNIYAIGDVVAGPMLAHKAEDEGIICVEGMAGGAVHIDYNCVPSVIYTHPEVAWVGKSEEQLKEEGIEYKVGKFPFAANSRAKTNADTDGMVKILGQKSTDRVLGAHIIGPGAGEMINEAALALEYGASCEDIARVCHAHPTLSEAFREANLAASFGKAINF

remaining activity at 1000 µM [1] [%]	Structure (SMILES)	pIC50 [2]	Michaelis-Menten kinetics of purified complex, NADH absorbance at 340 nm, 0-5 mM [3]
60.7	CCC[P+](c1ccccc1)(c1ccccc1)c1ccccc1 [Propyl, propyltriphenylphosphonium]	–	–
15.9	CCCCC[P+](c1ccccc1)(c1ccccc1)c1ccccc1 [Pentyl, pentyltriphenylphosphonium]	–	–
–	C[P+](c1ccccc1)(c1ccccc1)c1ccccc1 [TPMP, Methyltriphenylphosphonium]	2.41	The pattern of decreasing Vmax and increasing Km fits in a mixed-inhibition model.
